Data reported in patent publication US20220402862A1 (Intellia Therapeutics, Inc., priority 2019, published 2022).
Where “and” joins values, the source holds several entries; their conditions need not be identical. Equal entries are not always repeated.

Experiments:
[1] = Dynamic light scattering of LNPs: Z-average diameter, number average diameter, PDI; format: physicochemical; details: LNP
Summary of the method: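 LNP samples were diluted in PBS and measured by DLS to give intensity-based Z-average diameter, number average diameter and polydispersity index. PDI describes size spread around the mean, with zero meaning a uniform population.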

[2] = pKa measurement of unformulated amine lipid (fluorescence, method of Jayaraman et al.); format: physicochemical; details: 100 μM in 0.1 M phosphate buffer, pH 2.0-12.0
Method: The pKa of each amine lipid was determined according to the method in Jayaraman, et al. (Angewandte Chemie, 2012) with the following adaptations. […] Lipid was diluted to 100 μM in 0.1 M phosphate buffer (Boston Bioproducts) where the pH ranged from 2.0-12.0. Fluorescence intensity was measured using excitation and emission wavelengths of 321 nm and 448 nm.

mouse TTR gene = experiment: In vivo editing in mouse liver, sgRNA targeting TTR (G282 or G502), % indel by NGS; design: species or system CD-1 female mice
Method: CD-1 female mice ranging from 6-10 weeks of age were used in each study. Animals were weighed and grouped according to body weight for preparing dosing solutions based on group average weight. LNPs were dosed via the lateral tail vein in a volume of 0.2 mL per animal (approximately 10 mL per kilogram body weight). The animals were periodically observed for adverse effects for at least 24 hours post dose. For studies measuring in vivo editing in liver, CD-1 female mice were dosed at 0.1 mg/kg unless otherwise noted. Animals were euthanized at 6 or 7 days by ex sanguination via cardiac puncture under isoflurane anesthesia. Liver tissue was collected from each animal for DNA extraction and analysis. Blood was collected into serum separator tubes or into tubes containing buffered sodium citrate for plasma as described herein. Cohorts of mice were measured for editing by Next-Generation Sequencing (NGS).
In brief, to quantitatively determine the efficiency of editing at the target location in the genome, genomic DNA was isolated and deep sequencing was utilized to identify the presence of insertions and deletions introduced by gene editing.
PCR primers were designed around the target site (e.g., within B2M), and the genomic area of interest was amplified. Additional PCR was performed according to the manufacturer's protocols (Illumina) to add the necessary chemistry for sequencing. The amplicons were sequenced on an Illumina MiSeq instrument. The reads were aligned to the mouse or rat reference genome (e.g., GRCm38) after eliminating those having low quality scores. The resulting files containing the reads were mapped to the reference genome (BAM files), where reads that overlapped the target region of interest were selected and the number of wild type reads versus the number of reads which contain an insertion, substitution, or deletion was calculated.
The editing percentage (e.g., the “indel efficiency” or “percent indels”) was defined as the total number of sequence reads with insertions or deletions over the total number of sequence reads, including wild type.
We assessed in vivo editing efficiency for materials delivered with formulations including various amine lipid compounds. Editing was measured using either G282 (SEQ ID No: 1) which targets the mouse TTR gene or G650 (SEQ ID No. 2) which targets the mouse B2M gene. Lipids described above were assessed for efficacy through in vivo editing experiments. LNPs were formulated at a 1:1 or 1:1.3 w/w ratio of sgRNA to Cas9 mRNA, and at an N/P ratio of about 6. Molar concentrations of lipids in the lipid component of the LNPs are used at mol % amine lipid/DSPC/cholesterol/PEG-2k-DMG of 50/9/38/3. The final LNPs were characterized to determine the encapsulation efficiency, polydispersity index, and average particle size according to the analytical methods provided above. Analysis of average particle size, polydispersity (PDI), total RNA content and encapsulation efficiency of RNA are shown in Table 2.
To assess whether the editing was dose responsive, experiments were performed in vivo at various LNP dose levels. Cas9 mRNA of Example 120 was formulated as LNPs with an sgRNA targeting TTR (G282, SEQ ID NO: 1; or G502, SEQ ID NO: 4).
We assessed in vivo delivery by measuring editing efficiency for materials delivered with formulations that included various amine lipid compounds. Cas9 mRNA (SEQ ID NO: 6) was formulated as LNPs with an sgRNA targetting the TTR mouse gene (SEQ ID NO: 4). LNPs were formulated at a 1:2 w/w ratio of sgRNA to Cas9 mRNA, and at an N/P ratio of about 6. Molar concentrations of lipids in the lipid component of the LNPs are used at mol % amine lipid/DSPC/cholesterol/PEG-2k-DMG of 50/9/38/3. The final LNPs compositions were characterized and analyzed as described in Example 120. Analysis of average particle size, polydispersity (PDI), total RNA content and encapsulation efficiency of RNA are shown in Table 6.

[3] = RNA encapsulation efficiency of LNPs (Ribogreen fluorescence assay); format: physicochemical; details: LNP; for Encapsulation (%): sg:mRNA 1:1, N/P about 6, amine lipid/DSPC/cholesterol/PEG-2k-DMG 50/9/38/3, Table 2, Experiments 2-20
Summary of the method: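 LNPs were diluted in 1× TE with 0.2% Triton X-100 (total RNA) or without it (free RNA), stained with RiboGreen for ~10 min at room temperature in the dark, and read at Ex 488/Em 525 nm against standard curves of the starting RNA. Encapsulation efficiency = (Total − Free)/Total.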

Transthyretin (TTR) = experiment: Serum TTR ELISA in mice after LNP dosing; format: in vivo, CD-1 female mice
Summary of the method: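 Female CD-1 mice, 6–10 weeks, given LNPs by tail-vein injection (~10 mL/kg), 0.1 mg/kg unless noted; serum taken at day 6 or 7 by cardiac puncture. Total mouse TTR by ELISA on sera diluted 10,000-fold (0.1 mg/kg) or 10,000- and 2,500-fold (0.3 mg/kg).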

[4] = sg:mRNA 1:2, N/P about 6, 50/9/38/3, Table 6, Experiments 106-107
[5] = guide G502, i.v. 0.1 mg/kg, sgRNA:Cas9 mRNA 1:2 w/w, experiments 106, 107
[6] = sg:mRNA 1:2, N/P about 6, 50/9/38/3, TTR sgRNA (SEQ ID NO: 4), Table 6, Experiments 106-107
[7] = mouse serum TTR relative to TSS control, guide G502, i.v. 0.1 mg/kg
[8] = mouse serum, guide G502, i.v. 0.1 mg/kg
[9] = sg:mRNA 1:1, N/P about 6, 50/9/38/3, Table 2, Experiments 2-20
[10] = sg:mRNA 1:2, N/P 6.0, 50/9/38/3, Table 4, Experiment 105
[11] = sg:mRNA 1:1, N/P 6.0, 50/9/38/3, Table 4, Experiments 101-104

SMILES	Number mean (nm) [1, 4]	PDI [1, 4]	Z-avg (nm) [1, 4]	pKa [2]	Editing Mean % Indel (mouse TTR gene; [5])	% E [3, 6]	Serum TTR % TSS (Transthyretin (TTR); [7])	Serum TTR (Transthyretin (TTR); [8])	Number mean (nm) [1, 9]	Z-avg (nm) [1, 9]	Encapsulation (%) [3]	further results
CCCCC/C=C\C/C=C\CCCCCCCC(=O)OCC(COC(=O)CCC(OCCCCCCCC)OCCCCCCCC)COC(=O)NCCN1CCCCCC1 (centres unmarked) [Compound 103, 3-(((2-(azepan-1-yl)ethyl)carbamoyl)oxy)-2-(((4,4-bis(octyloxy)butanoyl)oxy)methyl)propyl (9Z,12Z)-octadeca-9,12-dienoate]	50 nm	0.05	65 nm	7	4.2%	99%	89.3%	1043.8 µg/mL				
CCCCC/C=C\C/C=C\CCCCCCCC(=O)OCC(COC(=O)CCC(OCCCCCCCC)OCCCCCCCC)COC(=O)NCCN1CCCC1 (centres unmarked) [Compound 100, 3-((4,4-bis(octyloxy)butanoyl)oxy)-2-((((2-(pyrrolidin-1-yl)ethyl)carbamoyl)oxy)methyl)propyl (9Z,12Z)-octadeca-9,12-dienoate]	70 nm	0.04	89 nm	7.2	12%	99%	81.3%	1017.4 µg/mL				
CCCCC/C=C\C/C=C\CCCCCCCC(=O)OCC(COC(=O)CCC(OCCCCCCCC)OCCCCCCCC)COC(=O)OCCC1CCCN1C (centres unmarked) [Compound 24, 3-((4,4-bis(octyloxy)butanoyl)oxy)-2-((((2-(1-methylpyrrolidin-2-yl)ethoxy)carbonyl)oxy)methyl)propyl (9Z,12Z)-octadeca-9,12-dienoate]									61.34 nm and 66.88 nm and 63.16 nm	76.82 nm and 83.92 nm and 77.24 nm	98% and 97%	PDI [1, 9]: 0.027 and 0.033 and 0.025; Number mean (nm) [1, 10]: 72.95 nm; PDI [1, 10]: 0.029; Z-avg (nm) [1, 10]: 88.39 nm; Editing Mean % Indel (mouse TTR gene; LNP i.v. 0.03 mg/kg, guide G502, Experiment 105): 11.34%; Editing Mean % Indel (mouse TTR gene; LNP i.v. 0.1 mg/kg, guide G502, Experiment 105): 40.54%; % E [3, 10]: 99%; Serum TTR % TSS (Transthyretin (TTR); mouse serum TTR relative to TSS control, guide G282 experiments): 46%; Serum TTR (Transthyretin (TTR); mouse serum, guide G282 experiments, ELISA): 397 µg/mL; Serum TTR (Transthyretin (TTR); mouse, LNP i.v. 0.03 mg/kg, guide G502, Experiment 105): 772 µg/mL; Serum TTR % TSS (Transthyretin (TTR); mouse, LNP i.v. 0.03 mg/kg, guide G502, Experiment 105, relative to TSS control): 70%; Serum TTR (Transthyretin (TTR); mouse, LNP i.v. 0.1 mg/kg, guide G502, Experiment 105): 420 µg/mL; Serum TTR % TSS (Transthyretin (TTR); mouse, LNP i.v. 0.1 mg/kg, guide G502, Experiment 105, relative to TSS control): 38%
CC/C=C\C/C=C\C/C=C\CCCCCCCC(=O)OCC(COC(=O)CCC(OCCCCCCCC)OCCCCCCCC)COC(=O)OCCCN(CC)CC (centres unmarked) [Compound 116, 3-((4,4-bis(octyloxy)butanoyl)oxy)-2-((((3-(diethylamino)propoxy)carbonyl)oxy)methyl)propyl (9Z,12Z,15Z)-octadeca-9,12,15-trienoate]	74 nm	0	90 nm	6.04	34.48%	99%	51.3%	567.09 µg/mL				
CCCCCC/C=C\COC(=O)CCCCCCCC(=O)OCC(COC(=O)CCC(OCCCCCCCC)OCCCCCCCC)COC(=O)OCCCN(CC)CC (centres unmarked) [Compound 54, (Z)-1-(3-((4,4-bis(octyloxy)butanoyl)oxy)-2-((((3-(diethylamino)propoxy)carbonyl)oxy)methyl)propyl) 9-(non-2-en-1-yl) nonanedioate]				6.4					76.95 nm and 71.8 nm and 78.39 nm	95.76 nm and 89.8 nm and 99.71 nm	98%	Number mean (nm) [1, 11]: 77.96 nm; PDI [1, 11]: 0.032; Z-avg (nm) [1, 11]: 96.98 nm; Editing Mean % Indel (mouse TTR gene; LNP i.v. 0.1 mg/kg, guide G282, Experiments 101-103): 28.3%; Editing Mean % Indel (mouse TTR gene; LNP i.v. 0.3 mg/kg, guide G282, Experiments 101-103): 64.8%; % E [3, 11]: 98%; Serum TTR (Transthyretin (TTR); mouse, LNP i.v. 0.1 mg/kg, guide G282, Experiments 101-103): 449 µg/mL; Serum TTR % TSS (Transthyretin (TTR); mouse, LNP i.v. 0.1 mg/kg, guide G282, Experiments 101-103, relative to TSS control): 49%; Serum TTR (Transthyretin (TTR); mouse, LNP i.v. 0.3 mg/kg, guide G282, Experiments 101-103): 97 µg/mL; Serum TTR % TSS (Transthyretin (TTR); mouse, LNP i.v. 0.3 mg/kg, guide G282, Experiments 101-103, relative to TSS control): 11%
CCCCC/C=C\C/C=C\CCCCCCCC(=O)OCC(COC(=O)CCC(OCCCCCCCC)OCCCCCCCC)COC(=O)NCCN1CCCCC1 (centres unmarked) [Compound 101, 3-((4,4-bis(octyloxy)butanoyl)oxy)-2-((((2-(piperidin-1-yl)ethyl)carbamoyl)oxy)methyl)propyl (9Z,12Z)-octadeca-9,12-dienoate]	58 nm	0.04	73 nm	6.4	25.9%	99%	56.1%	655.8 µg/mL				
